Measured values: patent US20250297134A1, “HIGH RATE BULK OXIDE CMP COMPOSITION” (ENTEGRIS, INC., priority 2024, published 2025)

assay: Aqueous solubility of hydroxamic acid compounds; format: physicochemical; conditions: deionized water, pH 5.5, stirred overnight, filtered, 1H NMR quantification
Experimental: The aqueous solubility was measured and the partition coefficient was computed for nineteen hydroxamic acid compounds. To measure the aqueous solubility, a supersaturated solution of each hydroxamic acid compound was prepared in deionized water. The pH was adjusted to 5.5 using nitric acid and the supersaturated solution was stirred overnight. Excess solids were removed via filtration and the hydroxamic acid compound in solution was quantified using 1H NMR with a t-BuOH standard. […] It was not possible to achieve super saturation for the 2-furohydroxamic acid compound. […] The partition coefficients were computed using the procedure described in Wildman, Scott A. and Crippen, Gordon M., Prediction of Physicochemical Parameters by Atomic Contributions, J. Chem. Inf. Comput. Sci. 1999, 39, 5, 868-873. Briefly, an atom type classification system was used for an atom-based calculation of the partition coefficient (log P) and the molar refractivity (MR).

| Aqueous Solubility | Compound |
| --- | --- |
| 1.0% | 2-Fluoro hydroxamic acid |
| 1.3% | 3-Fluoro hydroxamic acid |
| 1.0% | 4-Fluoro hydroxamic acid |
| 1.1% | COc1ccccc1C(=O)NO [2-Methoxybenzohydroxamic acid] |
| 3.3% | Cc1ccccc1C(=O)NO [2-Methylbenzohydroxamic acid] |
| >17.8% | O=C(NO)c1ccco1 [2-furohydroxamic acid] |
| 0.2% | Cc1ccc(CCCC(=O)NO)cc1 [4-(p-tolyl)butyrohydroxamic acid] |
| 0.5% | N#Cc1ccc(C(=O)NO)cc1 [4-Cyano-N-hydroxybenzamide] |
| 0.4% | COc1ccc(C(=O)NO)cc1 [4-Methoxybenzohydroxamic acid] |
| 0.5% | Cc1ccc(C(=O)NO)cc1 [4-Methylbenzohydroxamic acid] |
| 1.6% | O=C(CCCc1ccccc1)NO [4-Phenylbutyrl hydroxamic acid] |
| 3.6% | O=C(NO)c1ccccc1 [Benzohydroxamic acid] |
| 1.8% | O=C(COCc1ccccc1)NO [Benzyloxyacetohydroxamic acid] |
| 0.6% | O=C(C=Cc1ccccc1)NO [Cinnamohydroxamic acid] |
| 4.8% | CCCCCC(=O)NO [Hexanohydroxamic acid] |
| 1.5% | O=C(Cc1ccccc1)NO [N-hydroxy-2-phenyl-acetamide] |
| 0.2% | CCCCCCCC(=O)NO [Octanohydroxamic acid] |
| 3.0% | O=C(NO)c1ccccn1 [Picolinichydroxamic acid] |
